Laboratory results published in patent publication US20130209386A1, “NEW USES” (EVOCUTIS PLC, priority 2010, published 2013).
“And” between values parts separate entries of the source, which are not always exact repeats. Equal values may be shown once. Read-outs that look alike come from different tables or passages of the source. Marks after values point to notes of the source that are not given here.

How the values were obtained:
[1] = tested on: P. acnes NCTC 737; assay: Fixed ratio combination MIC/MBC assays; format: cell-based, Propionibacterium acnes
Procedure: (§1) (g) Fixed Ratio Combination MIC/MBC Assays
(§2) This method used a sterile 96-well microtitre plate, capable of holding about 200 μl of liquid per well. The wells contained liquid culture medium and ranges of decreasing concentrations of the relevant test compounds alone in doubling dilutions (eg 1000, 500, 250, 125 . . . μg/ml, etc. down to 0.49 μg/ml) or doubling dilutions of a combination of two compounds mixed initially at a fixed concentration ratio (based on molarity in this instance). The culture medium was as described above.
(§3) The wells were inoculated with a liquid suspension of freshly grown micro-organism and incubated under the conditions described above. After incubation, the microtitre plate was examined visually (with the aid of a light box) for cloudiness in each well, which would indicate microbial growth. The MIC value was recorded as the lowest concentration of test compounds alone or concentrations of the mixture of the two test compounds required to inhibit microbial growth, ie the liquid in the well remained clear.
(§4) The assays were conducted in triplicate and included both negative (culture medium with no micro-organisms) and positive (culture medium plus diluting solvent(s) plus micro-organism) controls.
(§5) These samples were then individually sub-cultured on antibiotic-free agar medium, under the incubation conditions described above. Following incubation they were examined visually for microbial growth.
(§6) Thus for each mixture tested, the FIC for compound A (FICA)=MIC for (A+B)/MIC for A alone. Similarly the FIC for compound B (FICB)=MIC for (A+B)/MIC for B alone. The overall FICI=FICA+FICB.
(§7) FBC & FBCI were calculated in the same manner using recorded MBC values.

[2] = tested on: C. striatum NCTC 764; assay: Fixed ratio combination MIC/MBC assays; format: cell-based, Corynebacterium striatum
Procedure: The second test organism used was Corynebacterium striatum NCTC 764. This is a Gram-positive bacterium which is closely related to organisms (aerobic diphtheroids of the genus Corynebacterium) that cause body odour (Guillet et al, Eur J Dermatol, 2000 Jan-Feb, 10(1): 41-2). The C. striatum was cultured and maintained on Mueller-Hinton Medium (agar and broth) at pH 7.3 (±0.1); cultures were incubated aerobically at 37° C. for 18-24 hours.
as §1, §2, §3, §4, §5, §6, §7

[3] = tested on: Propionibacterium acnes NCTC 737; assay: Minimum inhibitory concentration (MIC) assay; format: cell-based
Procedure: (§8) The first test organism used was Propionibacterium acnes NCTC 737. This is a propionibacterial strain and is the type strain of the genus; it is fully susceptible to antibiotics. The propionibacteria are clinically significant due to their involvement in acne. They are also opportunistic pathogens in compromised hosts. Activity observed against these micro-organisms is expected to be a good predictor of activity against acne.
(§9) The propionibacteria were cultured and maintained on Wilkins-Chalgren Anaerobe Medium (agar and broth) at pH 6.0; all cultures were incubated anaerobically at 37° C. for 72 hours.
(a) Minimum Inhibitory Concentration (MIC) Assay
This is a standard international method for quantitatively assessing the antimicrobial activity of a compound in a liquid medium. The method used a sterile 96-well microtitre plate, capable of holding about 200 μl of liquid per well. The wells contained liquid culture medium and ranges of decreasing concentrations of the relevant test compound in doubling dilutions (eg 1000, 500, 250, 125 . . . μg/ml, etc, down to 0.49 μg/ml). The culture media were as described above.
as §3, with “of test compound required to” for “of test compounds alone or concentrations of the mixture of the two test compounds required to”, “ie the lowest concentration for which the liquid in” for “ie the liquid in”
The assays included both negative (culture medium with no micro-organisms) and positive (culture medium plus diluting solvent plus micro-organism) controls.

[4] = tested on: Propionibacterium acnes NCTC 737; assay: Minimum biocidal concentration (MBC) assay; format: cell-based
Procedure: as §8, §9
(b) Minimum Biocidal Concentration (MBC) Assay
This assay, normally carried out after an MIC assay, determines the minimum concentration of a compound that is lethal to the micro-organism being tested.
as §5

[5] = tested on: Propionibacterium acnes NCTC 737; assay: Disc diffusion assay (DDA) and synergy disc diffusion assay (SDDA); format: cell-based
Procedure: (c) Disc Diffusion Assay (DDA)
This is an internationally recognised standard method for qualitatively assessing the antimicrobial activity of a compound or combination of compounds.
A sterile paper disc was impregnated with a sample of the test compound(s) in a suitable solvent (or applied neat) and 30 minutes allowed for any of the solvents to evaporate (where possible). The disc was then placed on an agar plate onto which the test micro-organism had been inoculated. The plate was then incubated under the conditions described above, following which it was examined visually for signs of microbial growth. […] The diameter of this zone of “inhibition” was measured using a ProtoCOL™ automated zone sizer (Synbiosis, Cambridge, UK).
(d) Synergy Disc Diffusion Assay (SDDA)
This is a variation on the DDA method, in which two compounds are tested together for their combined antimicrobial activity.
Two test compounds A and B were placed on a single paper disc and the above described DDA procedure repeated.
The two compounds were then subjected in combination to the SDDA assay described above.
MIC/MBC experiments were performed in duplicate and (S)DDA experiments in triplicate.
The tropolone was dissolved in ethanol.

[6] = C. striatum NCTC 764, compound alone
[7] = P. acnes NCTC 737, compound alone
[8] = compound alone, 12.5 μg per disc (gluconate, picolinate 25 μg; silicate 12.4 μg; chlorophyllin 200 μg)
[9] = copper salt + tropolone versus the greater single zone
[10] = copper salt combined with tropolone on one disc, 12.5 μg each (exceptions b187)

Row | Compound | MBC [2, 6] | MIC [2, 6] | MIC [3, 7] | MBC [4, 7] | MIC/MBC ratio [4, 7] | DDA zone of inhibition diameter [5, 8] | SDDA area increase [5, 9] | SDDA increase [5, 9] | (S)DDA with tropolone [5, 10] | other results
1 | CC(=O)[O-].CC(=O)[O-].CC(=O)[O-].[Bi+3] [Bismuth (III) acetate] |  |  |  |  |  |  |  |  |  | MBC ([1]; compound alone): >46.4** μg/ml; MIC ([1]; compound alone): 11.6 µg/mL
2 | [Cl][Bi]([Cl])[Cl] [Bismuth (III) chloride] |  |  |  |  |  |  |  |  |  | MBC ([1]; compound alone): 27 µg/mL and 40 µg/mL
3 | O=C([O-])CC(O)(CC(=O)[O-])C(=O)[O-].[Bi+3] [Bismuth (III) citrate] |  |  |  |  |  |  |  |  |  | MBC ([1]; compound alone): 8.5 µg/mL; MIC ([1]; compound alone): 2.1 µg/mL; MBC [2]: >67.9** μg/ml; MIC [2]: >67.9** μg/ml
4 | O=C(O)c1cc(O)c2c(c1)[O][Bi]([OH])[O]2 [Bismuth (III) subgallate] | >67.2** μg/ml | >67.2** μg/ml |  |  |  |  |  |  |  | MBC ([1]; compound alone): >67.2** μg/ml; MIC ([1]; compound alone): >67.2** μg/ml
5 | [Cu+].[I-] [Copper (I) iodide] | >97.5** μg/ml | >97.5** μg/ml | 7.8 µg/mL | 31.25 µg/mL | 0.25 | 29.66 mm | 24.28% | 3.41 mm | 33.07 mm | 
6 | O=C1CC[C@@H](C(=O)[O-])N1.O=C1CC[C@@H](C(=O)[O-])N1.[Cu+2] [Copper (II) PCA] | >81.9** μg/ml | >81.9** μg/ml | 15.6 µg/mL | 62.5 µg/mL | 0.25 | 23.36 mm | 55.70% | 5.79 mm | 29.15 mm | 
7 | CSCC[C@H](NC(C)=O)C(=O)[O-].CSCC[C@H](NC(C)=O)C(=O)[O-].[Cu+2] [Copper (II) acetylmethionate] |  |  | 7.8 µg/mL | 125 µg/mL | 0.06 | 10.23 mm | 306.27% | 13.44 mm | 26.67 mm | 
8 | [Cl][Cu][Cl] [Copper (II) chloride] | >34.4** μg/ml | >34.4** μg/ml | 1.95 µg/mL | 31.25 µg/mL | 0.06 | 32.14 mm | 1.94% | 0.31 mm | 32.45 mm | 
9 | NCC(=O)[O-].NCC(=O)[O-].[Cu+2] [Copper (II) glycinate] |  |  |  |  |  |  |  |  |  | MBC [2]: >54.2** μg/ml; MIC [2]: >54.2** μg/ml
10 | CC(=O)c1c([O-])c(C)c([O-])c2c1OC1=CC(=O)C(C(C)=O)C(=O)C12C.[Cu+2] (centres unmarked) [Copper (II) usnate] | 6 µg/mL | 3 µg/mL | 0.25 µg/mL | 1.95 µg/mL | 0.125 | 38.35 mm | 22.13% | 4.03 mm | 42.38 mm | 
11 | O=C([O-])CN(CCN(CC(=O)[O-])CC(=O)[O-])CC(=O)[O-].[Cu+2].[Na+].[Na+] [EDTA copper (II) disodium salt] |  |  | 7.8 µg/mL | >250 µg/mL | <0.03 | 10.03 mm | 328.62% | 14.16 mm | 27.39 mm | 
12 | CC(C)c1cccc(=O)c(O)c1 [Hinokitiol, 2-hydroxy-4-isopropyl-2,4,6-cycloheptatrien-1-one] |  |  |  |  |  |  |  |  |  | MBC ([1]; Cutibacterium acnes, NCTC737, compound alone, read-out: MBC): 62.5 µg/mL; MIC ([1]; Cutibacterium acnes, NCTC737, compound alone, read-out: MIC): 31.2 µg/mL
13 | O.O=C(O)CC(O)(CC(=O)O)C(=O)O.[Ag].[Ag].[Ag] [Silver (I) citrate hydrate] | 11.3 µg/mL | 2.83 µg/mL |  |  |  |  |  |  |  | 
14 | Bismuth (III) subnitrate | >249.4** μg/ml | >249.4** μg/ml |  |  |  |  |  |  |  | MBC ([1]; compound alone): 15.6 µg/mL; MIC ([1]; compound alone): 3.9 µg/mL
15 | Copper (II) carbonate basic | >28.3** μg/ml | >28.3** μg/ml | 7.8 µg/mL | 31.25 µg/mL | 0.25 | 9.10 mm | 102.17% | 5.58 mm | 18.81 mm | 
16 | Copper (II) citrate dihydrate |  |  |  |  |  |  |  |  |  | MIC [3]: 1.95 µg/mL; MBC [4]: 31.25 µg/mL; MIC/MBC ratio [4]: 0.06; MBC [2]: >45** μg/ml; MIC [2]: >45** μg/ml; (S)DDA with tropolone [5]: 32.45 mm; DDA zone of inhibition diameter [5]: 32.04 mm; SDDA area increase [5]: 2.60%; SDDA increase [5]: 0.41 mm
17 | Copper (II) gluconate | >116** μg/ml | >116** μg/ml | 62.5 µg/mL | 125 µg/mL | 0.5 | 26.25 mm | 40.43% | 4.86 mm | 31.11 mm | 
18 | Copper (II) picolinate | >78.8** μg/ml | >78.8** μg/ml | 62.5 µg/mL | 62.5 µg/mL | 1 | 35.25 mm | −14.13% | −2.58 mm | 32.66 mm | 
19 | Copper (II) salicylate |  |  |  |  |  |  |  |  |  | MIC [3]: 7.8 µg/mL; MBC [4]: 31.25 µg/mL; MIC/MBC ratio [4]: 0.25; MBC [2]: >86** μg/ml; MIC [2]: >86** μg/ml; (S)DDA with tropolone [5]: 32.87 mm; DDA zone of inhibition diameter [5]: 28.32 mm; SDDA area increase [5]: 34.70%; SDDA increase [5]: 4.55 mm
20 | Copper (II) silicate | >35.7** μg/ml | >35.7** μg/ml | 4.84 µg/mL | 38.75 µg/mL | 0.125 | 33.80 mm | 3.08% | 0.52 mm | 34.32 mm | 
21 | Sodium copper (II) chlorophyllin | >185** μg/ml | 23.2 µg/mL | 15.6 µg/mL | 31.25 µg/mL | 0.5 | 0.00 mm | 220.07% | 10.44 mm | 23.67 mm | 
